From patent publication US3992533A, “O-ethyl-S-N-propyl-O-(2-chloro-4-bromophenyl)-thiophosphate” (priority 1971, dated 1976)
Like-named read-outs stand apart in the source and are kept apart here.

Experiments:
[1] = test system: third instar larvae of Heliothis virescens; assay: Insecticidal test on sprayed potted cotton and tobacco plants, initial and residual effect; type: in vivo
Experimental: Potted cotton and tobacco plants respectively were sprayed with 125 ppm of active ingredient in the form of an aqueous emulsion. After the coating had dried, the treated plants were infested with third instar larvae of Heliothis virescens. The tests were running under greenhouse conditions at 24° C and 60% relative humitidy. Assessments to evaluate the initial effect of the immediate acitivity of the active ingredient were carried out 4, 24 and 48 hours after the infestation of the plants with the pests. Assessments to evaluate the […] of the activity over a prolonged period of the active ingredient were carried out as follows: the coated test plants were infested with the test individuals 2 and 8 days respectively after the application of the active ingredient. Each test was checked after 4, 24 and 48 hours. Test compounds

[2] = Acute oral toxicity in rat; conditions: in vivo, per os
Tetranychus urticae = assay: Acaricidal action on Phaseolus vulgaris; type: in vivo; conditions: larvae, adults and eggs evaluated after 7 days; greenhouse 25° C
Experimental: The number of living and dead larvae, adults and eggs were evaluated after 7 days under a stereoscopic microscope and the result expressed in percentages. During the "interim", the treated plants were kept in greenhouse compartments at 25° C.

Anthrenus vorax = assay: Talcum dust on filter paper, dosage for 100% control within 24 hours; type: in vivo; conditions: 5% talcum dust on filter paper
Experimental: (§1) A dust on a base of talcum and containing 5% active ingredient was applied to filter paper in concentrations of 100, 50, 25, 12.5 6.2 and 3.1 mg of active substance per m^ 2. Onto each of the treated substrates were applied 5 Necrobia rufipes, Rhyzoperta dominica, Anthrenus vorax and Tribolium confusum individuals respectively. Evaluation took place 24 hours later. Test compounds were same as set forth in Example 2.

Necrobia rufipes = assay: as above; type: in vivo; conditions: 5% talcum dust on filter paper
Experimental: as §1

Rhyzoperta dominica = assay: as above; type: in vivo; conditions: 5% talcum dust on filter paper
Experimental: as §1

Tribolium confusum = assay: as above; type: in vivo; conditions: 5% talcum dust on filter paper
Experimental: as §1

cotton pests = assay: Comparison of activity with closest known compounds; type: in vivo; conditions: on at least the same toxicity level; especially initial effect towards cotton pests
[3] = 125 ppm aqueous emulsion, initial effect, assessment 4 h after infestation, 24° C, 60% relative humidity, read-out: % mortality, initial, 4 hours
[4] = 125 ppm, infested 2 days after application, assessment at 24 h, read-out: % mortality, residual 2d, 24 hours
[5] = 125 ppm, infested 2 days after application, assessment at 48 h, read-out: % mortality, residual 2d, 48 hours
[6] = 125 ppm, infested 8 days after application, assessment at 4 h, read-out: % mortality, residual 8d, 4 hours
[7] = 125 ppm, infested 8 days after application, assessment at 24 h, read-out: % mortality, residual 8d, 24 hours
[8] = 125 ppm, infested 8 days after application, assessment at 48 h, read-out: % mortality, residual 8d, 48 hours
[9] = 125 ppm, initial effect, assessment 24 h after infestation, read-out: % mortality, initial, 24 hours
[10] = 125 ppm, initial effect, assessment 48 h after infestation, read-out: % mortality, initial, 48 hours
[11] = 4 h, read-out: % mortality, residual 2d, 4 hours

| Structure (SMILES) | mortality at 125 ppm [1, 3] [%] | mortality at 125 ppm ([1]; 125 ppm, infested 2 days after application, assessment at 4 h, read-out: % mortality, residual 2d, 4 hours) [%] | mortality at 125 ppm [1, 4] [%] | mortality at 125 ppm [1, 5] [%] | mortality at 125 ppm [1, 6] [%] | mortality at 125 ppm [1, 7] [%] | mortality at 125 ppm [1, 8] [%] | mortality at 125 ppm [1, 9] [%] | mortality at 125 ppm [1, 10] [%] | LD50 [2] [mg/kg] | acaricidal activity (Tetranychus urticae) | Dosage needed which provides a 100% control within 24 hours (Anthrenus vorax) [mg a.i./m^2] | Dosage needed which provides a 100% control within 24 hours (Necrobia rufipes) [mg a.i./m^2] | Dosage needed which provides a 100% control within 24 hours (Rhyzoperta dominica) [mg a.i./m^2] | Dosage needed which provides a 100% control within 24 hours (Tribolium confusum) [mg a.i./m^2] | activities versus the closest known compounds (cotton pests) | mortality at 125 ppm [1, 11] [%] |
| --- | --- | --- | --- | --- | --- | --- | --- | --- | --- | --- | --- | --- | --- | --- | --- | --- | --- |
| CCCSP(=O)(OCC)Oc1ccc(Br)cc1Cl (centres unmarked) [I, O-ethyl-S-N-propyl-O-(2-chloro-4-bromophenyl)-thiophosphate] | 100 | 100 | 100 | 100 | 50 | 100 | 100 | 100 | 100 | 400 to 900 | good activity | 25 | 3.1 | 25 | 50 | surprisingly superior activities |  |
| CCCSP(=O)(OCC)Oc1ccc(Cl)cc1Cl (centres unmarked) [II, O-ethyl-S-n-propyl-O-(2,4-dichlorophenyl)-thiophosphoric acid ester] | 80 |  | 100 | 100 | 30 | 50 | 100 | 90 | 100 | 400 |  | 50 | 6.2 | 50 | 100 |  | 50 |
| CCCSP(=O)(OCC)Oc1ccc(Br)cc1Br (centres unmarked) [III, O-ethyl-S-n-propyl-O-(2,4-dibromophenyl)-thiophosphoric acid ester] | 75 |  | 100 | 100 | 0 | 5 | 55 | 100 | 100 | 300 |  | 100 | 6.2 | 100 | > 100 |  | 30 |
